Laboratory results reported in patent publication US9510598B2, “Nitrogen-containing heterocyclic compounds for plant disease control” (BAYER CROPSCIENCE AG, priority 2012, dated 2016).
Where two headings read alike, the source gives them in different places.

How the values were obtained:
[1] = format: physicochemical; conditions: for chromatographic logP: pH 2.7; for log P: method [a]: HPLC/LC-MS on reversed phase at pH 2.7, 0.1% formic acid in water / acetonitrile, linear gradient 10% to 95% acetonitrile
physchem = conditions: pH 2.7
Protocol: Measurement of log P values was performed according EEC directive 79/831 Annex V.A8 by HPLC (High Performance Liquid Chromatography) on reversed phase columns with the following methods: ^[a]

Peronospora parasitica = assay: In vivo preventive test on Peronospora parasitica (crucifer downy mildew); conditions: 500 ppm; cabbage plants sprayed 24 hours before contamination; grading 5 days after contamination vs control plants
Protocol: Cabbage plants (Eminence variety) in starter cups, sown on a 50/50 peat soil-pozzolana substrate and grown at 18-20° C., are treated at the cotyledon stage by spraying with the aqueous suspension described above. Plants, used as controls, are treated with an aqueous solution not containing the active material. After 24 hours, the plants are contaminated by spraying them with an aqueous suspension of Peronospora parasitica spores (50.000 spores per ml). The spores are collected from infected plant. The contaminated cabbage plants are incubated for 5 days at 20° C., under a humid atmosphere. Grading is carried out 5 days after the contamination, in comparison with the control plants.

Pyrenophora teres = assay: In vivo preventive test on Pyrenophora teres (net blotch on barley); conditions: 500 ppm; barley plants sprayed 24 hours before contamination; grading 12 days after contamination vs control plants
Protocol: Barley plants (“Plaisant” variety), sown in starter cups on a 50/50 peat soil-pozzolana substrate and grown at 22° C. (12 h)/20° C. (12 h), are treated at the 1-leaf stage (10 cm height) by spraying with the active ingredient prepared as described above. Plants, used as controls, are treated with the mixture of acetone/tween/DMSO/water not containing the active material. After 24 hours, the plants are contaminated by spraying the leaves with an aqueous suspension of Pyrenophora teres spores (12 000 spores per ml). The spores are collected from a 12-day-old culture. […] Grading (% of efficacy) is carried out 12 days after the contamination, in comparison with the control plants.

Puccinia recondita = assay: In vivo preventive test on Puccinia recondita (brown rust on wheat); conditions: 500 ppm; wheat plants sprayed 24 hours before contamination; grading 10 days after contamination vs control plants
Outline: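 Wheat (Scipion) grown at 22° C./20° C. (12 h each), sprayed with active ingredient at 1-leaf stage (10 cm); controls sprayed with acetone/tween/DMSO/water lacking active. Leaves inoculated 24 hours later with Puccinia recondita spore suspension (100 000 spores per ml).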

Septoria tritici = assay: In vivo preventive test on Septoria tritici (leaf spot on wheat); conditions: 500 ppm; wheat plants sprayed 24 hours before contamination; grading 21 to 28 days after contamination vs control plants
Outline: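 Scipion wheat at 1-leaf stage sprayed with compound, controls receiving acetone/tween/DMSO/water vehicle; 24 h later leaves inoculated with Septoria tritici spores (500 000 spores per ml). Efficacy (%) graded versus control plants 21 to 28 days after contamination.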

Botrytis cinerea = assay: In vivo preventive test on Botrytis cinerea (grey mould); conditions: 500 ppm; gherkin plants sprayed 24 hours before contamination; grading 4-5 days after contamination vs control plants
Outline: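 Gherkin plants ("Vert petit de Paris") sprayed with compound at Z11 cotyledon stage, then inoculated 24 h later with B. cinerea spores (50 000/ml) in PDB/fructose/NH4NO3/KH2PO4 nutrient solution. Incubated at 17 °C, 80% RH; % efficacy versus solvent-treated controls graded 4–5 days after contamination.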

Alternaria brassicae = assay: In vivo preventive test on Alternaria brassicae (leaf spot on radish); conditions: 500 ppm; radish plants sprayed 24 hours before contamination; grading 5 days after contamination vs control plants
Outline: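 Radish plants ('Pernod Clair', grown at 17 °C) were spray-treated at the 2-leaf stage; controls received solvent mix only. After 24 h, leaves were sprayed with 50 000 spores/ml from 15-day-old cultures, and % efficacy was graded 5 days post-inoculation against controls.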

Phytophthora infestans = format: in vivo; conditions: 500 ppm; tomato plants sprayed 24 hours before contamination; grading 5 days after contamination vs control plants
Sphaerotheca fuliginea = assay: In vivo preventive test on Sphaerotheca fuliginea (powdery mildew on cucurbits); conditions: 500 ppm; gherkin plants sprayed 24 hours before contamination; grading 12 days after contamination vs control plants
Outline: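 Preventive spray of gherkin plants at Z11 cotyledon stage, grown at 24° C; inoculation 24 hours later with Sphaerotheca fuliginea spores (100 000 spores per ml). Efficacy graded 12 days post-inoculation as % versus solvent-treated control plants.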

Uromyces appendiculatus = assay: In vivo preventive test on Uromyces appendiculatus (bean rust); conditions: 500 ppm; bean plants sprayed 24 hours before contamination; grading 10 days after contamination vs control plants
Protocol: Bean plants (“Saxa” variety), sown in starter cups on a 50/50 peat soil-pozzolana substrate and grown at 24° C., are treated at the 2-leaf stage (9 cm height) by spraying with the active ingredient prepared as described above. Plants, used as controls, are treated with the mixture of acetone/tween/DMSO/water not containing the active material. After 24 hours, the plants are contaminated by spraying the leaves with an aqueous suspension of Uromyces appendiculatus spores (150 000 spores per ml).

| SMILES | chromatographic logP [1] | chromatographic logP (physchem) | log P [1] | Grading, protection (Peronospora parasitica) [%] | % of efficacy (protection) (Pyrenophora teres) [%] | % of efficacy (protection) (Puccinia recondita) [%] | % of efficacy (protection) (Septoria tritici) [%] | % of efficacy (protection) (Botrytis cinerea) [%] | % of efficacy (protection) (Alternaria brassicae) [%] | % of efficacy (protection) (Phytophthora infestans) [%] | % of efficacy (protection) (Sphaerotheca fuliginea) [%] | % of efficacy (protection) (Uromyces appendiculatus) [%] |
| --- | --- | --- | --- | --- | --- | --- | --- | --- | --- | --- | --- | --- |
| CC1(C(=O)O)CC(c2ccc3ncc(Cl)cc3c2)=NO1 (centres unmarked) [Compound No. II-01, 3-(3-chloroquinolin-6-yl)-5-methyl-4,5-dihydro-1,2-oxazole-5-carboxylic acid] | 1.87 | 1.87 |  |  |  |  |  |  |  |  |  |  |
| CC1(C(=O)O)CC(c2ccc3ncc(I)cc3c2)=NO1 (centres unmarked) [Compound No. II-09] | 1.93 | 2.05 |  |  |  |  |  |  |  |  |  |  |
| COC(=O)C1(C)CC(c2ccc3ncc(Cl)cc3c2)=NO1 (centres unmarked) [II-23, methyl 3-(3-chloroquinolin-6-yl)-5-methyl-4,5-dihydro-1,2-oxazole-5-carboxylate] | 2.58 | 2.58 |  |  |  |  |  |  |  |  |  |  |
| CC(C)NC(=O)C1(C(F)(F)F)CC(c2ccc3ncc(Br)cc3c2)=NO1 (centres unmarked) [compound 36] |  |  | 3.52^[a] | 98 | 79 | 79 | 100 |  |  |  |  |  |
| CCn1cc(CNC(=O)C2(OC)CC(c3ccc4ncc(Br)cc4c3)=NO2)c(C)n1 (centres unmarked) [compound 47] |  |  | 2.31^[a] | 100 | 75 |  | 100 | 95 |  |  |  |  |
| COC1(C(=O)NC(C)C)CC(c2ccc3ncc(Br)cc3c2)=NO1 (centres unmarked) [compound 48] |  |  | 2.64^[a] | 98 | 93 | 89 | 100 | 100 | 97 | 100 | 100 | 96 |
